From PMC8355587, “The Potential of Lisosan G as a Possible Treatment for Glaucoma” (Frontiers in Pharmacology, 2021)
Read-outs that look alike come from different tables or passages of the source.

Legend:
[1] = UHPLC-MS of LG components in the retina after LG gavage; type: in vivo, mouse; conditions: for AUC 0-24h in the retina / C max in the retina: *mg of retinal tissue (wet weight), n = 3; for Tmax: retina, 4.15 g LG/Kg of body weight; for retinal levels 24 h after LG administration: longest time period investigated
Protocol: For the analysis of different LG components reaching the retina after LG ingestion, a total of eighteen 6-mo-old D2 mice received an oral administration of LG solution by gavage. The retinas of three mice were dissected and quickly frozen in liquid nitrogen after 0 or 30 min and after 1, 2, 6, or 24 h. The retinas were stored at −80°C until used for mass spectrometry.
Assuming an average mouse body weight of 20 g, this dose corresponded to 4.15 g LG/Kg of body weight (human equivalent dose, 340 mg LG/Kg of body weight).
The main components of LG were determined in the LG powder (1 mg sample) using the same procedure as described below for the retinas. The most abundant were gallic acid, 4-hydroxybenzoic acid, quercetin, and nicotinamide (Table 2), therefore these metabolites were chosen as the LG components to be determined in the retina. To this aim, LG was administered to the mice by gavage and the retinas were dissected at different time points. The two retinas from each mouse were pooled together and they were resuspended in 0.2 ml of ice cold ultra-pure water (18 MΏ-cm) to lyse the cells. Three independent samples were analyzed for each time point. The tubes were plunged into dry ice or in a circulating bath at −25°C for 0.5 min and then into a water bath at 37°C for 0.5 min. Subsequently, 0.6 ml of −20°C methanol and then 0.4 ml of −20°C chloroform were added to each tube. The tubes were mixed every 5 min for 30 min, then they were centrifuged at 1000 × g for 1 min at 4°C, before being transferred to −20°C for 2–8 h. After centrifugation at 15,000 × g for 10 min at 4°C, the supernatants were collected and dried. Finally, the dried samples were resuspended in 0.1 ml of water and transferred to glass autosampler vials for LC-MS analysis. The supernatants were injected (20 μl) into a UHPLC system (Ultimate 3000; ThermoFisher Scientific, Waltham, MA, United States) and run in negative ion mode for determination of 4-hydroxy benzoic acid and in positive ion mode for the other. A ReproSil C18 column (2.0 mm × 150 mm, 2.5 μm; Dr Maisch, Ammerbuch-Entringen, Germany) was used for metabolite separation. […] For positive ion mode (+) MS analyses, a 0–100% linear gradient of solvent A (ddH2O, 0.1% formic acid) to B (acetonitrile, 0.1% formic acid) was employed over 20 min returning to 100% A in 3 min. For negative ion mode chromatographic separations A 0–100% linear gradient of solvent A (double-distilled 18 MΏ-cm water, […]) to B (100% acetonitrile, 10 mm ammonium acetate) was employed over 20 min, returning to 100% A in 3 min and a […] solvent A hold. The UHPLC system was coupled online with a mass spectrometer Q Exactive (ThermoFisher) scanning in full MS mode (2 μ scans) at 70,000 resolution in the 60–1000 m/z range. Data files were processed by MAVEN. 8.1 (http://genomics-pubs.princeton.edu/mzroll/) upon conversion of raw files into mzXML format through MassMatrix (Yellow Springs, OH, United States). Standard curves were obtained with several calibration points (2–0.00002 mg) of gallic acid, 4-hydroxybenzoic acid, quercetin, and nicotinamide analytical standards (Sigma Aldrich, St Louis, MO, United States).

[2] = design: method as in printed; conditions: general statement, no test and ref not given; cited from earlier work
[3] = D2 mice, LG by gavage 1 ml of 83 mg LG/ml (4.15 g LG/Kg)

| SMILES | AUC 0-24h in the retina [1, 3] | C max in the retina [1, 3] | time within which retinal levels decreased ([1]; after LG administration by gavage) | Tmax ([1]; mouse, po, D2 mice, LG by gavage 1 ml of 83 mg LG/ml (4.15 g LG/Kg), read-out: T max in the retina) | T max in the retina ([1]; D2, mouse, in vivo, po) | retinal levels 24 h after LG administration [1] | T max in the retina [1, 3] | solubility in water [2] | Tmax ([1]; D2, mouse, po, after LG administration by gavage, read-out: time of maximum concentration in the retina) |
| --- | --- | --- | --- | --- | --- | --- | --- | --- | --- |
| O=c1c(O)c(-c2ccc(O)c(O)c2)oc2cc(O)cc(O)c12 [Quercetin, quercetin] | 0.263 ± 0.049 ng·h/mg | 0.061 ± 0.016 ng/mg | ≤ 2 h | 30 min |  |  |  |  |  |
| O=C(O)c1cc(O)c(O)c(O)c1 [Gallic acid, gallic acid] |  |  |  |  | 30 min | still in the range of its maximum concentration |  |  |  |
| O=C(O)c1ccc(O)cc1 [Hydroxy benzoic acid, 4-hydroxybenzoic acid] | 958.500 ± 291.500 ng·h/mg | 444.250 ± 109.713 ng/mg |  |  |  |  | 30 min | only slightly soluble in water |  |
| NC(=O)c1cccnc1 [Nicotinamide, nicotinamide] | 106.900 ± 52.210 ng·h/mg | 8.040 ± 1.274 ng/mg |  |  |  | detectable, although low |  |  | 360 min |
